Assay results taken from ChEMBL document CHEMBL1201862, “PubChem BioAssay data set” (2004).
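Each compound was tested at five concentrations against cells in 96-well plates for 48 hours. The concentration for 50% growth inhibition is given as GI50.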 The source made the active and inactive calls. No stated cut-off is given here; in the data, active = GI50 up to about 1.1 µM and inactive = higher.

What was measured:
Test in all cases: NCI tumour cell line growth inhibition, 48 h
MCF7 = test system: MCF7
TK-10 = test system: TK-10
T47D = test system: T47D
M14 = test system: M14
HL-60 = test system: HL-60
Hs-578T = test system: Hs-578T
EKVX = test system: EKVX
UACC-62 = test system: UACC-62
Malme-3M = test system: Malme-3M
SNB-19 = test system: SNB-19
OVCAR-3 = test system: OVCAR-3
OVCAR-8 = test system: OVCAR-8
BT-549 = test system: BT-549
SR = test system: SR
CCRF-CEM = test system: CCRF-CEM
KM12 = test system: KM12
HT-29 = test system: HT-29
NCI-H460 = test system: NCI-H460
MDA-MB-435 = test system: MDA-MB-435

Measured: GI50

c1ccc(-c2cc3[nH]c4ccccc4[nH]c-3cc(-c3ccccc3)nn2)cc1
inactive: MCF7 51.3 µM | TK-10 22.9 µM | T47D > 100 µM | M14 > 100 µM | HL-60 20.6 µM | Hs-578T 66.4 µM | EKVX > 100 µM | UACC-62 > 100 µM | Malme-3M 62.4 µM | SNB-19 41.6 µM | OVCAR-3 22.7 µM | OVCAR-8 54.2 µM | BT-549 > 100 µM | SR 96.2 µM | CCRF-CEM 49.3 µM | KM12 46.9 µM | HT-29 50.9 µM | NCI-H460 30 µM | MDA-MB-435 64.3 µM

Cc1cc(NS(=O)(=O)c2ccc(Nc3c4ccccc4nc4ccc(C(=O)Nc5ccc(S(=O)(=O)N=C(N)N)cc5)cc34)cc2)no1
inactive: MCF7 > 100 µM | TK-10 > 100 µM | T47D > 100 µM | M14 > 100 µM | HL-60 > 100 µM | Hs-578T > 100 µM | EKVX > 100 µM | UACC-62 > 100 µM | Malme-3M > 100 µM | SNB-19 > 100 µM | OVCAR-3 > 100 µM | OVCAR-8 > 100 µM | BT-549 > 100 µM | SR > 100 µM | CCRF-CEM 66.1 µM | KM12 > 100 µM | HT-29 > 100 µM | NCI-H460 > 100 µM | MDA-MB-435 > 100 µM

CC(C)(C)OC(=O)N1CCCC1=O
inactive: MCF7 > 10 µM | TK-10 > 10 µM | T47D > 10 µM | M14 > 10 µM | HL-60 > 10 µM | Hs-578T > 10 µM | EKVX > 10 µM | UACC-62 > 10 µM | Malme-3M > 10 µM | SNB-19 > 10 µM | OVCAR-3 > 10 µM | OVCAR-8 > 10 µM | BT-549 > 10 µM | SR > 10 µM | CCRF-CEM > 10 µM | KM12 > 10 µM | HT-29 > 10 µM | NCI-H460 > 10 µM | MDA-MB-435 > 10 µM

Oc1cccc2ccc(SSc3ccc4cccc(O)c4n3)nc12
inactive: MCF7 5.89 µM | TK-10 20.1 µM | T47D 13.2 µM | M14 16 µM | HL-60 22.8 µM | Hs-578T 31.4 µM | EKVX 29.3 µM | UACC-62 17.4 µM | Malme-3M 16 µM | SNB-19 > 100 µM | OVCAR-3 16.1 µM | OVCAR-8 19.1 µM | BT-549 21.1 µM | SR 23.9 µM | CCRF-CEM 3.36 µM | KM12 13.7 µM | HT-29 18.7 µM | NCI-H460 19.3 µM | MDA-MB-435 19 µM
